# From ChEMBL document CHEMBL3879908, “Pyrrolidinone carboxamide derivatives” (2014)
# Biological target: T1, Chemerin-like receptor 1 (Homo sapiens, UniProt Q99788)
# T1 sequence (Q99788 whole entry): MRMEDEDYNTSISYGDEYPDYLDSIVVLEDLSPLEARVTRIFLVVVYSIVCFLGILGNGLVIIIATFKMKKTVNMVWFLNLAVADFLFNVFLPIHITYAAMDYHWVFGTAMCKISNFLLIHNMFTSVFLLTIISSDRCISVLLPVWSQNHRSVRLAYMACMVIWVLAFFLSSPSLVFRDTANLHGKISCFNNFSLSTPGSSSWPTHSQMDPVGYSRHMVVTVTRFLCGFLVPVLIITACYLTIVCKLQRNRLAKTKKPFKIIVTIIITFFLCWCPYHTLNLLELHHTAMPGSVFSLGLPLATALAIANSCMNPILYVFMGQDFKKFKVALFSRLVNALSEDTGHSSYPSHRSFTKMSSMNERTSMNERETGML
# Test: Displacement of [125I]-chemerin from ChemR23 (unknown origin) transfected in mouse BaF3 cells after 3 hrs by scintillation counting method
# Type: cell-based
row,SMILES,IC50 [nM]
1,Cc1cccc(C)c1N1CC(C)(C(=O)Nc2cc(C(F)(F)F)cc(C(F)(F)F)c2)CC1=O (stereo not given),≤ 30
2,CCN(CC)C[C@@]1(C(=O)Nc2cc(C#N)cc(C(F)(F)F)c2)CN(c2c(C)cccc2C)C(=O)[C@H]1C,≤ 30
3,CCN(C)C[C@@]1(C(=O)Nc2cc(C(F)(F)F)cc(C(F)(F)F)c2)CN(c2c(C)cccc2C)C(=O)[C@H]1C,≤ 30
4,Cc1cccc(C)c1N1CC(CC2CCN(Cc3ccccc3)C2)(C(=O)Nc2cc(C(F)(F)F)cc(C(F)(F)F)c2)CC1=O (stereo not given),≤ 30
5,Cc1cccc(C)c1N1CC2(C(=O)Nc3cc(C(F)(F)F)cc(C(F)(F)F)c3)CC=CCC2C1=O (stereo not given),≤ 30
6,COc1cc(NC(=O)C2CC(=O)N(c3c(C)cccc3C)C2)cc(C(F)(F)F)c1 (stereo not given),30 to 300
7,Cc1cccc(C)c1N1C[C@@](CN(C)CC(C)C)(C(=O)Nc2cc(C(F)F)cc(C(F)(F)F)c2)[C@H](C)C1=O,≤ 30
8,COc1ccccc1N1CC(C(=O)Nc2cc(C3CC3)cc(C(F)(F)F)c2)(C(C)C)CC1=O (stereo not given),300 to 6000
9,Cc1cccc(C)c1N1C[C@@](CN(C)CC(C)C)(C(=O)Nc2cc(C(F)(F)F)cc(C(F)(F)F)c2)[C@H](C)C1=O,≤ 30
10,Cc1cccc(C)c1N1CC2(C(=O)Nc3cc(C(F)(F)F)cc(C(F)(F)F)c3)C[C@H](F)CC2C1=O (stereo not given in full),≤ 30
11,Cc1cccc(C)c1N1C[C@@](CN(C)C(C)(C)CO)(C(=O)Nc2cc(C(F)(F)F)cc(C(F)(F)F)c2)[C@H](C)C1=O,30 to 300
12,Cc1cccc(C)c1N1C[C@@](CN(C)CC(F)F)(C(=O)Nc2cc(C(F)(F)F)cc(C(F)(F)F)c2)[C@H](C)C1=O,≤ 30
13,CC[C@@]1(C(=O)Nc2cc(N(C)C)cc(C(F)(F)F)c2)CN(c2c(C)cccc2C)C(=O)[C@H]1C,30 to 300
14,Cc1cccc(C)c1N1CC(COCc2ccccc2)(C(=O)Nc2cc(C(F)(F)F)cc(C(F)(F)F)c2)CC1=O (stereo not given),≤ 30
15,Cc1cccc(Br)c1N1CC(C(=O)Nc2cc(C(F)(F)F)cc(C(F)(F)F)c2)(C(C)C)CC1=O (stereo not given),≤ 30
16,Cc1cccc(C)c1N1C[C@@](CN(C)C)(C(=O)Nc2cc(C#N)cc(C(F)(F)F)c2)[C@H](C)C1=O,≤ 30
17,Cc1cccc(C)c1N1CC(C(=O)Nc2cc(Cl)cc(C(F)(F)F)c2)CC1=O (stereo not given),30 to 300
18,CCCC[C@@]1(C(=O)Nc2cc(C(F)(F)F)cc(C(F)(F)F)c2)CN(c2c(C)cccc2C)C(=O)[C@H]1C,≤ 30
19,CC(C)C1(C(=O)Nc2cc(C(F)(F)F)cc(C(F)(F)F)c2)CC(=O)N(c2ccccc2CN2CCOCC2)C1 (stereo not given),300 to 6000
20,Cc1cccc(C)c1N1C[C@]2(C(=O)Nc3cc(C(F)(F)F)cc(C(F)(F)F)c3)CC[C@@H]2C1=O,≤ 30
21,Cc1cccc(C)c1N1CC(C(=O)Nc2cc(C3CC3)cc(C(F)(F)F)c2)CC1=O (stereo not given),300 to 6000
22,Cc1cccc(C)c1N1CC(C(=O)Nc2cccc(C#N)c2)CC1=O (stereo not given),300 to 6000
23,Cc1cccc(C)c1N1C[C@](C(=O)Nc2cc(C3CC3)cc(C(F)(F)F)c2)(C(C)C)CC1=O,≤ 30
24,CNC1(C(=O)Nc2cc(C(F)(F)F)cc(C(F)(F)F)c2)CC(=O)N(c2c(C)cccc2C)C1 (stereo not given),≤ 30
25,Cc1cccc(C)c1N1CC(C(=O)Nc2cc(C(F)(F)F)cc(C(F)(F)F)c2)(N2CCOCC2)CC1=O (stereo not given),≤ 30

row,SMILES,IC50 [nM]
1,Cc1cccc(C)c1N1C[C@@](CN2CCC(F)(F)CC2)(C(=O)Nc2cc(C#N)cc(C(F)(F)F)c2)[C@H](C)C1=O,30 to 300
2,Cc1cccc(C)c1N1CC(C(=O)Nc2cc(C(F)(F)F)cc(C(F)(F)F)c2)(C(C)(C)O)CC1=O (stereo not given),≤ 30
3,Cc1cccc(C)c1N1CC(C(=O)Nc2ccc(Cl)c(Cl)c2)CC1=O (stereo not given),300 to 6000
4,CCN(CC)C[C@@]1(C(=O)Nc2cc(Cl)cc(C(F)(F)F)c2)CN(c2c(C)cccc2C)C(=O)[C@H]1C,30 to 300
5,O=C(Nc1cc(C(F)(F)F)cc(C(F)(F)F)c1)C1CC(=O)N(c2ccccc2)C1 (stereo not given),300 to 6000
6,CCN(C[C@@]1(C(=O)Nc2cc(C#N)cc(C(F)(F)F)c2)CN(c2c(C)cccc2C)C(=O)[C@H]1C)C(C)C,≤ 30
7,CCc1cccc(C)c1N1CC(C(=O)Nc2ccc(C(F)(F)F)cc2)CC1=O (stereo not given),300 to 6000
8,Cc1cccc(C)c1N1C[C@@](CN2CCOCC2)(C(=O)Nc2cc(C#N)cc(C(F)(F)F)c2)[C@H](C)C1=O,30 to 300
9,Cc1cccc(C)c1N1C[C@@](CN2CCOCC2)(C(=O)Nc2cc(C3CC3)cc(C(F)(F)F)c2)[C@H](C)C1=O,30 to 300
10,CCc1cccc(C)c1N1CC(C(=O)Nc2ccc(C)c(C(F)(F)F)c2)CC1=O (stereo not given),300 to 6000
11,Cc1cccc(C)c1N1CC(CO)(C(=O)Nc2cc(C(F)(F)F)cc(C(F)(F)F)c2)CC1=O (stereo not given),30 to 300
12,Cc1cccc(C)c1N1C[C@@](CN(C)C2CCC2)(C(=O)Nc2cc(OC(C)C)cc(C(F)(F)F)c2)[C@H](C)C1=O,30 to 300
13,CC[C@@]1(C(=O)Nc2cc(C)cc(C(F)(F)F)c2)CN(c2c(C)cccc2C)C(=O)[C@H]1C,≤ 30
14,Cc1cccc(C)c1N1CC(CC(C)C)(C(=O)Nc2cc(C(F)(F)F)cc(C(F)(F)F)c2)CC1=O (stereo not given),≤ 30
15,Cc1cccc(CCN2CCOCC2)c1N1CC(C(=O)Nc2cc(C(F)(F)F)cc(C(F)(F)F)c2)(C(C)C)CC1=O (stereo not given),300 to 6000
16,CCN(CC)C[C@@]1(C(=O)Nc2cc(OC(C)C)cc(C(F)(F)F)c2)CN(c2c(C)cccc2C)C(=O)[C@H]1C,30 to 300
17,Cc1cc(F)cc(C)c1N1CC(C(=O)Nc2cc(C(F)(F)F)cc(C(F)(F)F)c2)CC1=O (stereo not given),30 to 300
18,CC[C@@]1(C(=O)Nc2cc(CN3CCCC3)cc(C(F)(F)F)c2)CN(c2c(C)cccc2C)C(=O)[C@H]1C,300 to 6000
19,CCC(C)(C)C1(C(=O)Nc2cc(C(F)(F)F)cc(C(F)(F)F)c2)CC(=O)N(c2c(C)cccc2C)C1 (stereo not given),30 to 300
20,CCOCc1cccc(C)c1N1CC(C(=O)Nc2cc(C(F)(F)F)cc(C(F)(F)F)c2)(C(C)C)CC1=O (stereo not given),300 to 6000
21,CCc1cccc(C)c1N1CC(C(=O)Nc2cccc(Cl)c2)CC1=O (stereo not given),300 to 6000
22,CCCCC1(C(=O)Nc2cc(C(F)(F)F)cc(C(F)(F)F)c2)CC(=O)N(c2c(C)cccc2C)C1 (stereo not given),≤ 30
23,Cc1cccc(C)c1N1C[C@@](C)(C(=O)Nc2cc(C(F)(F)F)cc(C(F)(F)F)c2)[C@H](C)C1=O,≤ 30
24,COCc1cccc(C)c1N1C[C@](C(=O)Nc2cc(C(F)(F)F)cc(C(F)(F)F)c2)(C(C)C)CC1=O,30 to 300
25,CCN(CC)C[C@@]1(C(=O)Nc2cc(C(F)(F)F)cc(C(F)(F)F)c2)CN(c2c(C)cccc2C)C(=O)[C@H]1C,300 to 6000

row,SMILES,IC50 [nM]
1,Cc1cccc(C)c1N1C[C@@](CN2CCC(F)(F)CC2)(C(=O)Nc2cc(Cl)cc(C(F)(F)F)c2)[C@H](C)C1=O,30 to 300
2,Cc1cccc(C)c1N1C[C@@](C(=O)Nc2cc(C(F)(F)F)cc(C(F)(F)F)c2)(C(C)C)[C@H](C)C1=O,≤ 30
3,Cc1cccc(C)c1N1CC(C(=O)Nc2cc(Br)cc(C(F)(F)F)c2)(C(C)C)CC1=O (stereo not given),≤ 30
4,Cc1cccc(C)c1N1C[C@](C(=O)Nc2cc(NC(C)C)cc(C(F)(F)F)c2)(C(C)C)[C@H](C)C1=O,30 to 300
5,Cc1cccc(C)c1N1C[C@](C(=O)Nc2cc(OC(C)C)cc(C(F)(F)F)c2)(C(C)C)CC1=O,≤ 30
6,COCCN(C)C[C@@]1(C(=O)Nc2cc(C#N)cc(C(F)(F)F)c2)CN(c2c(C)cccc2C)C(=O)[C@H]1C,30 to 300
7,Cc1cccc(C)c1N1C[C@@](CN2CCCCC2)(C(=O)Nc2cc(C(F)(F)F)cc(C(F)(F)F)c2)[C@H](C)C1=O,300 to 6000
8,CO[C@@H]1CC2C(=O)N(c3c(C)cccc3C)CC2(C(=O)Nc2cc(C(F)(F)F)cc(C(F)(F)F)c2)C1 (stereo not given in full),≤ 30
9,Cc1cccc(C)c1N1CC2(C(=O)Nc3cc(C(F)(F)F)cc(C(F)(F)F)c3)CCCCC2C1=O (stereo not given),30 to 300
10,Cc1cccc(C)c1N1C[C@@](CN(C)C)(C(=O)Nc2cc(C(F)(F)F)cc(C(F)(F)F)c2)[C@H](C)C1=O,≤ 30
11,Cc1cccc(C)c1N1C[C@@](CN(CCF)CC(C)C)(C(=O)Nc2cc(C(F)(F)F)cc(C(F)(F)F)c2)[C@H](C)C1=O,≤ 30
12,Cc1cccc(C)c1N1C[C@@](CN2CCC(F)(F)C2)(C(=O)Nc2cc(C#N)cc(C(F)(F)F)c2)[C@H](C)C1=O,≤ 30
13,Cc1cccc(C)c1N1C[C@@](CN(C)CC(C)(C)C)(C(=O)Nc2cc(C(F)(F)F)cc(C(F)(F)F)c2)[C@H](C)C1=O,≤ 30
14,Cc1cccc(C)c1N1CC(C(=O)Nc2cc(C(F)(F)F)cc(C(F)(F)F)c2)(C2CCC2)CC1=O (stereo not given),≤ 30
15,Cc1cccc(C)c1N1CC(C(=O)Nc2cc(C(F)(F)F)cc(C(F)(F)F)c2)(C2CCN(C)CC2)CC1=O (stereo not given),300 to 6000
16,C=CCC1C(=O)N(c2c(C)cccc2C)CC1(CC=C)C(=O)Nc1cc(C(F)(F)F)cc(C(F)(F)F)c1 (stereo not given),≤ 30
17,CC[C@@]1(C(=O)Nc2cc(CN3CCOCC3)cc(C(F)(F)F)c2)CN(c2c(C)cccc2C)C(=O)[C@H]1C,300 to 6000
18,Cc1cccc(C)c1N1C[C@@](CN2CCC(F)CC2)(C(=O)Nc2cc(C3CC3)cc(C(F)(F)F)c2)[C@H](C)C1=O,30 to 300
19,Cc1cccc(C)c1N1C[C@@](CN(C)CCCCF)(C(=O)Nc2cc(C(F)(F)F)cc(C(F)(F)F)c2)[C@H](C)C1=O,≤ 30
20,CC[C@@H]1C(=O)N(c2c(C)cccc2C)C[C@]1(C)C(=O)Nc1cc(C(F)(F)F)cc(C(F)(F)F)c1,300 to 6000
21,Cc1cccc(C)c1N1CC(CCC(C)C)(C(=O)Nc2cc(C(F)(F)F)cc(C(F)(F)F)c2)CC1=O (stereo not given),≤ 30
22,Cc1cccc(C)c1N1C[C@@](CN2CCC(F)(F)CC2)(C(=O)Nc2cc(C(F)(F)F)cc(C(F)(F)F)c2)[C@H](C)C1=O,≤ 30
23,Cc1ccccc1N1CC(C(=O)Nc2cc(C3CC3)cc(C(F)(F)F)c2)(C(C)C)CC1=O (stereo not given),30 to 300
24,Cc1cccc(C2CC2)c1N1CC(C(=O)Nc2cc(C(F)(F)F)cc(C(F)(F)F)c2)CC1=O (stereo not given),≤ 30
25,CC[C@@]1(C(=O)Nc2cc(Cl)cc(C#N)c2)CN(c2c(C)cccc2C)C(=O)[C@H]1C,30 to 300
